Assay type in all cases: cell-based
Assay [1] relates to Escherichia coli ATCC 25922. The note with it: Table 4; Gram −. The essentials: (§1)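 MIC read after 24 hours at 35° C., following CLSI M7-A6 microdilution in MHB with 5×10^5 CFU/ml bacteria added to equal volume of 1:2 serially diluted compound. Enterococcal strains 99 and 106 are vancomycin-resistant; S. aureus NRS119 is a linezolid-resistant isolate.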
Assay [2] has as its system Klebsiella pneumoniae ATCC 33495. The note with it: Table 4; Gram −. The essentials: as §1
Assay [3] has as its system Staphylococcus aureus VAN2. The note with it: Table 4; vancomycin resistant. The method in brief:
as §1

Assay [4] relates to Serratia marcescens ATCC 13880. The note with it: Table 4; Gram −. The essentials:
as §1

In another assay the test system is Enterococcus faecium 106. The note with it: Table 4; vancomycin resistant. The method in brief: as §1
The subject of assay [5] is Staphylococcus aureus VAN1. Particulars: Table 4; vancomycin resistant. The method in brief: as §1
Assay [6] concerns Proteus vulgaris ATCC 49132. The note with it: Table 4; Gram −. The method in brief: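 Broth microdilution per CLSI M7-A6 in Mueller-Hinton broth, inoculum 5×10^5 CFU/ml mixed 1:1 with twofold serial dilutions of peptoid. Plates incubated at 35° C. for 24 hours before MIC was recorded; values reproducible over three independent replicates run in duplicate.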
The test system of the next assay is Enterococcus faecalis 99. The note with it: Table 4; vancomycin resistant. The essentials:
as §1

In assay [7] the test system is Pseudomonas aeruginosa ATCC 27853. The note with it: Table 4; Gram −. The method in brief:
as §1

Assay [8] concerns Staphylococcus aureus NRS120. Particulars: Table 4; Gram +. The method in brief:
as §1

For assay [9], the system named is Proteus mirabilis ATCC 35659. The method in brief: as §1
Assay [10] deals with Staphylococcus aureus NRS119. Particulars: Table 4; Gram +. The essentials:
as §1

A further assay concerns E. coli JM109. The note with it: Table 1; E. coli JM109. From the text:
An initial set of 15 ampetoid analogs was synthesized to determine whether peptoids are affected by structural and sequence modifications in a manner consistent with AMP activities. The designs for ampetoids in this library were derived from two antibacterial and selective amphipathic dodecamers, 1 and 2. Peptoid 1 [H-(Nlys-Nspe-Nspe)4—NH2] is composed of 2/3 Nspe, the peptoid analog of phenylalanine, and 1/3 Nlys, the peptoid analog of lysine (see FIG. 1 for the structures of representative peptoid monomers and corresponding N-substituents). Peptoid 2 [H-(Nlys-Nssb-Nspe)4—NH2] contains 1/3 isoleucine-like Nssb monomers in place of Nspe. The variant sequences were designed to effect changes in chirality, length, hydrophobicity, charge, and amphipathicity. All of these compounds were tested for antibacterial activity against representative BSL1 Gram-negative (E. coli JM109) and Gram-positive (B. subtilis BR151) bacterial strains. As an initial measure of selectivity, the lytic activity of the peptoids was determined against human erythrocytes. Table 1 summarizes the sequences synthesized, the solvent composition at RP-HPLC elution as a relative measure of molecular hydrophobicity, and antibacterial and hemolytic activities.
Antibacterial assays. MICs were determined according to CLSI M7-A6 protocols in a 96-well microtiter plate. In test wells, 50 μL bacterial inoculum (5×10^5 CFU/ml) in Mueller-Hinton broth (MHB) was added to 50 μL peptoid solution in MHB (prepared by 1:2 serial dilutions). Positive controls contained 50 μL inoculum and 50 μL MHB without peptoid. […] MIC values reported were reproducible between three independent experimental replicates, each consisting of two parallel trials. Broad-spectrum antimicrobial susceptibility testing was performed against BSL2 pathogens by Nova Biologicals, Inc. (Conroe, Tex.).

Molecules are shown by their SMILES. In brackets after ≈: the same amount, converted by molar mass. Square brackets hold non-standard residues; d marks the D form. Peptide text beside a SMILES is read from it. Nspe = C[C@H](NCC(=O)O)c1ccccc1; Nlys = NCCCCNCC(=O)O

As to `C[C@@H](c1ccccc1)N(CC(N)=O)C(=O)CN(C(=O)CN(CCCCN)C(=O)CN(C(=O)CN(C(=O)CN(CCCCN)C(=O)CN(C(=O)CN(C(=O)CN(CCCCN)C(=O)CN(C(=O)CN(C(=O)CNCCCCN)[C@@H](C)c1ccccc1)[C@@H](C)c1ccccc1)[C@@H](C)c1ccccc1)[C@@H](C)c1ccccc1)[C@@H](C)c1ccccc1)[C@@H](C)c1ccccc1)[C@@H](C)c1ccccc1` [compound 1, H-(NLys-Nspe-Nspe)4-NH2] (H-[Nlys][Nspe][Nspe][Nlys][Nspe][Nspe][Nlys][Nspe][Nspe][Nlys][Nspe][Nspe]-NH2), the “MIC Escherichia coli ATCC 25922” value in assay [1] was 2.2 µM (≈ 4 µg/mL). Further, the “MIC Klebsiella pneumoniae ATCC 33495” value in assay [2] amounted to 8.8 µM (≈ 16 µg/mL). Moreover, the “MIC Staphylococcus aureus VAN2” value in assay [3] stood at 2.2 µM (≈ 4 µg/mL). Moreover, the “MIC Serratia marcescens ATCC 13880” value in assay [4] worked out at 70.4 µM (≈ 128 µg/mL). Besides, the “MIC Enterococcus faecium 106” value in the assay on Enterococcus faecium 106 was found to be 2.2 µM (≈ 4 µg/mL). Besides, the “MIC Staphylococcus aureus VAN1” value in assay [5] is 2.2 µM (≈ 4 µg/mL). In assay [6], the “MIC Proteus vulgaris ATCC 49132” value turned out to be 17.6 µM (≈ 32 µg/mL). Besides, the “MIC Enterococcus faecalis 99” value against Enterococcus faecalis 99 is 4.4 µM (≈ 8.01 µg/mL). Besides, in assay [7], the “MIC Pseudomonas aeruginosa ATCC 27853” value is 4.4 µM (≈ 8.01 µg/mL). In assay [8], the “MIC Staphylococcus aureus NRS120” value came to 4.4 µM. Besides, the “MIC Proteus mirabilis ATCC 35659” value in [9] (Table 4, Gram −) was more than 70.4 µM. In addition, the “MIC P. mirabilis ATCC 35659” value in assay [9] (Table 7A) was more than 128 µg/mL. The “MIC Staphylococcus aureus NRS119” value in [10] was 2.2 µM. In the assay on E. coli JM109, the “E. coli MIC” value turned out to be 3.5 µM.
